Test results from US9821002B2, “Method for alleviating radiation injury with isorhamnetin-3-O-β-D-glucoside” (Sinotai Oncology Associate., Ltd., priority 2015, dated 2017).

What was measured:
Type in all cases: cell-based, mouse
NMuMG cells [1] = assay: Cell cycle analysis (PI flow cytometry) after X-ray irradiation; conditions: 2 h pretreatment, X-ray 20 Gy, 96 hours, mean ± SEM
Protocol: Four groups of NMuMG cells (i.e., a normal control group, an X-ray control group, and two experimental groups referred to as Experimental Groups 1 to 2) were prepared based on the procedure set forth in “Source and cultivation of cell lines” of “Experimental materials”. NMuMG cells in each group were cultivated using 5 mL of a corresponding medium shown in Table 1 and a 6-cm Petri dish in an amount of 2.5×10^5 cells per dish. The cultivation was conducted in an incubator (37° C., 5% CO2) for 24 hours.
Subsequently, medium was replaced with fresh medium, and a suitable amount of isorhamnetin-3-O-β-D-glucoside stock solution was added to the obtained culture in each of Experimental Groups 1 and 2, such that the final concentration of isorhamnetin-3-O-β-D-glucoside in the culture in Experimental Group 1 was 15 μM, and the final concentration of isorhamnetin-3-O-β-D-glucoside in the culture in Experimental Group 2 was 30 μM. Isorhamnetin-3-O-β-D-glucoside stock solution was not added to the cultures in the normal control group and the X-ray control group.
The culture in each group was then cultivated in an incubator (37° C., 5% CO2) for two hours. The resultant culture was used for the following cell cycle analysis.
The cultures in the X-ray control group and Experimental Groups 1 to 2, prepared according to section A of “Experimental procedures” in this example, were subjected to X-ray irradiation using a linear accelerator at a dose of 20 Gy. The culture in the normal control group received no X-ray irradiation treatment. The culture in each group was cultivated in an incubator (37° C., 5% CO2) for 96 hours, followed by centrifugation at 25° C. and 1200 rpm for 3 minutes. The supernatant was removed, and the precipitate thus obtained was washed with cold PBS (pH 7.4), followed by fixing the cells with 1 mL of cold methanol. The fixed cells thus obtained were left standing at −20° C. overnight. Following this, the fixed cells were washed with cold PBS (pH 7.4), and 250 μL of cold DNA dying solution which was prepared in ddH2O, containing 200 μg/mL RNase A solution (Sigma-Aldrich), 50 μg/mL propidium iodide (PI)(Sigma-Aldrich), and 0.1% (v/v) Triton X-100, was added to re-suspend the cells in each group. The cells were kept in the dark for 30 minutes at 37° C. to obtain stained cells.
Subsequently, the stained cells thus obtained were subjected to cell cycle analysis using BD Accuri™ C6 flow cytometer (BD Biosciences), and 1.0×10^6 cells were analyzed in each analysis. The cells emitted fluorescence when excited by a laser beam of argon ion at 488 nm, and the fluorescence intensity was detected at a wavelength of 585 nm. The percentage of the cells in each cell cycle phase was analyzed using BD Accuri™ C6 software (BD Biosciences).

BNL CL.2 cells = assay: Mitochondrial membrane potential assay (JC-1) after X-ray irradiation; conditions: 5 μM, 2 h pretreatment, X-ray 15 Gy, 120 hours, mean ± SEM
Description: (§1) Four groups of BNL CL.2 cells (i.e., a normal control group referred to as Normal Control Group 1-A, an X-ray control group referred to as X-Ray Control Group 1-A, and two experimental groups referred to as Experimental Groups 1-A to 2-A), and six groups of NMuMG cells (i.e., a normal control group referred to as Normal Control Group 1-B, an X-ray control group referred to as X-Ray Control Group 1-B, two isorhamnetin groups referred to as Isorhamnetin Groups 1 to 2, and two experimental groups referred to as Experimental Groups 1-B to 2-B), were prepared based on the procedure set forth in “Source and cultivation of cell lines” of “Experimental materials”. BNL CL.2 cells in each group were cultivated using 5 mL of a corresponding medium shown in Table 1 and a 6-cm Petri dish in an amount of 2×10^5 cells per dish. Likewise, NMuMG cells in each group were cultivated using 5 mL of a corresponding medium shown in Table 1 and a 6-cm Petri dish in an amount of 2.5×10^5 cells per dish. The cultivation was conducted in an incubator (37° C., 5% CO2) for 24 hours. […]
(§2) 1 mL of trypsin-EDTA was added so as to detach the cells from the bottom of the Petri dish. […] Mitochondrial membrane potential assay was conducted using BD Accuri™ C6 flow cytometry, and the percentage of mitochondrial membrane potential depolarization (%) was calculated using BD Accuri™ C6 software.

NMuMG cells [2] = assay: as above; conditions: 15 μM, 2 h pretreatment, X-ray 10 Gy, 48 hours, mean ± SEM
Description: as §1, §2

SMILES: COc1cc(-c2oc3cc(O)cc(O)c3c(=O)c2O[C@@H]2O[C@H](CO)[C@@H](O)[C@H](O)[C@H]2O)ccc1O [isorhamnetin-3-O-β-D-glucoside]
- The percentage of the cells in each cell cycle phase: G0/G1 (NMuMG cells [1]; 15 μM): 21 ± 4.31 %
- The percentage of the cells in each cell cycle phase: G2/M (NMuMG cells [1]; 15 μM): 58.76 ± 8.97%
- The percentage of the cells in each cell cycle phase: S (NMuMG cells [1]; 15 μM): 6.4 ± 0.28%
- The percentage of the cells in each cell cycle phase: Sub-G1 (NMuMG cells [1]; 15 μM): 16.11 ± 2.03 %
- The percentage of the cells in each cell cycle phase: G0/G1 (NMuMG cells [1]; 30 μM): 22.25 ± 4.87 %
- The percentage of the cells in each cell cycle phase: G2/M (NMuMG cells [1]; 30 μM): 59.63 ± 10.78%
- The percentage of the cells in each cell cycle phase: S (NMuMG cells [1]; 30 μM): 5.88 ± 1.2%
- The percentage of the cells in each cell cycle phase: Sub-G1 (NMuMG cells [1]; 30 μM): 13.88 ± 1.46 %
- Percentage of mitochondrial membrane potential depolarization (BNL CL.2 cells): 16 ± 2.97 %
- Percentage of mitochondrial membrane potential depolarization (NMuMG cells [2]): 30.05 ± 1.07 %
